Reference: patent US10668033B2, “Modulators of the prostacyclin (PGI2) receptor useful for the treatment of disorders related thereto” (Arena Pharmaceuticals, Inc., priority 2008, dated 2020)
One block for each compound: values may come before it.

Assays:
human PRP = assay: Human platelet aggregation inhibition test; format: cell-based; conditions: ADP (1×10^−5 M) induced aggregation
Procedure: Blood collected from healthy human volunteers in aqueous trisodium citrate solution was centrifuged at 150 g for 15 min and the upper layer was recovered to obtain platelet-rich plasma (PRP). The residual blood was centrifuged at 3000 g for 10 min and the supernatant was collected as platelet-poor plasma (PPP). Platelet concentration in the PRP was determined using the Z series Beckman Coulter particle counter (Beckman, Fullerton, Calif.) and adjusted to 250,000 platelets/μL using PPP. 480 μL of PRP was pre-incubated at 37° C. and stirred at 1200 rpm with 10 μL aqueous test compound solution for 1 min prior to induction of aggregation by the addition of 10 μL of aqueous adenosine diphosphate (ADP) solution to adjust the final ADP concentration in the PRP to 1×10^−5 M. The maximal amplitude of aggregation response within 3 min was determined and measured in triplicate using the Chronolog model 490 aggregometer (Chrono-log Corp., Havertown, Pa.). Percent inhibition of aggregation was calculated from the maximum decrease in optical density of the control (addition of water in place of the test compound solution) sample and of the samples containing test compound. The test compound was added to adjust the final concentration to the range 10^−9 to 10^−4 M, and IC50 values were determined by inhibition percentage of aggregation at each concentration.

[1] = target: human prostacyclin (PGI2) receptor (Homo sapiens (Human), UniProt P43119); assay: HTRF assay for direct cAMP measurement; format: cell-based; conditions: recombinant CHO-K1 cells stably transfected with human prostacyclin receptor; cAMP increase
Sequence of human prostacyclin (PGI2) receptor (P43119 whole entry): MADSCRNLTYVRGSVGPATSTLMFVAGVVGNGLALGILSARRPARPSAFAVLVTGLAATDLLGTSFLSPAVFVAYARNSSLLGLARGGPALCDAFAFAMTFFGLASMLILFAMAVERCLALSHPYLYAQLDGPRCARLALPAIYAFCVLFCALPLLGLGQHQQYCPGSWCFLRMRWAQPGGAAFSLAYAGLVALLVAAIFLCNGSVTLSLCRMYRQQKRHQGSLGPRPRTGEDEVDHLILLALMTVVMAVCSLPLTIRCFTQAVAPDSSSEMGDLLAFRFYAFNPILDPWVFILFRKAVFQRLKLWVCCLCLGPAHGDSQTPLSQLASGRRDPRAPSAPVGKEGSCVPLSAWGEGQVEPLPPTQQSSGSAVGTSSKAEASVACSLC
From the text: Compounds were screened for agonists of the human prostacyclin (PGI2) receptor using the HTRF® assay for direct cAMP measurement (Gabriel et al., ASSAY and Drug Development Technologies, 1:291-303, 2003) and recombinant CHO-K1 cells stably transfected with human prostacyclin receptor. CHO-K1 cells were obtained from ATCC® (Manassas, Va.; Catalog # CCL-61). An agonist of the prostacyclin receptor was detected in HTRF® assay for direct cAMP measurement as a compound which increased cAMP concentration. HTRF® assay also was used to determine EC50 values for prostacyclin receptor agonists.
The HTRF® assay kit was purchased from Cisbio-US, Inc. (Bedford, Mass.; Catalog #62AM4PEC). The HTRF® assay supported by the kit is a competitive immunoassay between endogenous cAMP produced by the CHO-K1 cells and tracer cAMP labeled with the dye d2. The tracer binding is visualized by a monoclonal anti-cAMP antibody labeled with Cryptate. The specific signal (i.e., fluorescence resonance energy transfer, FRET) is inversely proportional to the concentration of unlabeled cAMP in the standard or sample.
The fluorescence ratio (665 nm/620 nm) of the standards (0.17 to 712 nM cAMP) included in the assay was calculated and used to generate a cAMP standard curve according to the kit manufacturer's instructions. The fluorescence ratio of the samples (test compound or compound buffer) was calculated and used to deduce respective cAMP concentrations by reference to the cAMP standard curve.
The HTRF® assay was carried out using a two-step protocol essentially according to the kit manufacturer's instructions, in 20 μL total volume per well in 384-well plate format (ProxiPlates; PerkinElmer, Fremont, Calif.; catalog #6008280). To each of the experimental wells was transferred 3000 recombinant CHO-K1 cells in 5 μL assay buffer (phosphate buffered saline containing calcium chloride and magnesium chloride (Invitrogen, Carlsbad, Calif.; catalog #14040) supplemented with IBMX (100 μM) and rolipram (10 μM) (phosphodiesterase inhibitors; Sigma-Aldrich, St. Louis, Mo.; catalog #15879 and catalog # R6520, respectively) and 0.1% bovine serum albumin (BSA) fraction V (Sigma-Aldrich; catalog # A3059)), followed by test compound in 5 μL assay buffer or 5 μL assay buffer. The plate was then incubated at room temperature for 1 h. To each well was then added 5 μL cAMP-d2 conjugate in lysis buffer and 5 μL Cryptate conjugate in lysis buffer according to the kit manufacturer's instructions. The plate was then further incubated at room temperature for 1 h, after which the assay plate was read.
The HTRF® readout was accomplished using a PHERAstar (BMG LABTECH Inc., Durham, N.C.) or EnVision™ (PerkinElmer, Fremont Calif.) microplate reader.

[2] = system: MCT-induced pulmonary arterial hypertension; assay: Rat monocrotaline (MCT) model of pulmonary arterial hypertension; format: in vivo; conditions: 30 mg/kg oral gavage twice a day for 21 days; 60 mg/kg MCT s.c.; male Wistar rats
Procedure: Male Wistar rats (100-150 g at start of study) (Charles River Laboratories, Wilmington, Mass.) were housed two per cage and maintained in a humidity—(40-60%) and temperature—(68-72° F.) controlled facility on a 12 hr:12 hr light/dark cycle (lights on at 6:30 am) with free access to food (Harlan Teklad, Orange Calif., Rodent Diet 8604) and water. Rats were allowed one week of habituation to the animal facility before testing.
The rat monocrotaline (MCT) model is a standard and well-accepted model of pulmonary arterial hypertension. MCT induces acute pulmonary endothelial damage associated with pulmonary vascular inflammation. […]
Rats were randomly given a single subcutaneous injection of either 60 mg/kg MCT (Sigma, St. Louis, Mo.) or 0.9% saline (sham) and assigned to receive oral administration of 20% hydroxypropyl beta-cyclodextrin (vehicle) or test compound (30 mg/kg; FIGS. 7 and 8). […] Heart chamber weights were measured on Day 22. […] The ratio of right ventricular (RV) weight to left ventricle plus septum (LV+S) weight (this ratio is indicated as “RV/(LV+S)” in FIGS. 7 and 8) was calculated as an index of the hypertrophic response to the induced pulmonary arterial hypertension and, as such, as an index of a test compound's therapeutic efficacy for pulmonary arterial hypertension.

[3] = Pharmacokinetics in rats after oral administration of Compound 99; format: in vivo, Sprague-Dawley rat
Procedure: Blood samples were obtained from 0.100 to 21.0 h post-dose for plasma drug concentration measurements. […] Pharmacokinetic parameters were estimated using non-compartmental pharmacokinetic analysis.

human hepatocytes = assay: Hepatocyte metabolism of Compound 22 sodium salt, human; format: in vitro ADME; conditions: 100 μM, up to 240 min
Procedure: (§1) All cryopreserved hepatocytes were thawed and diluted to a desired cell density (1×10^6 cells/mL) according to the supplier's (Xenotech) guidelines using hepatocytes isolation kit. Cell viability was determined by trypan blue exclusion using a hemacytometer. A typical incubation mixture contained human, cynomolgus monkey, beagle dog or Sprague-Dawley rat hepatocytes (200,000 cells/199 μL) in designated wells of a 48-well plate containing incubation medium (Phenol red-free Waymouth's medium). […] One incubation plate was prepared for each time point (i.e., 0, 60, 120, and 240 min) with samples being prepared in duplicate. Incubations were conducted at 37° C., 5% CO2 and 100% relative humidity in an incubator. At each time point, one incubation plate was removed form the incubator, and reaction was terminated by adding 400 μL of acetonitrile containing an internal standard. For the 0 min time point, the reactions were kept on ice before adding Compound 22 sodium salt. After 5 min on ice, the reaction mixture was terminated by adding 400 μL of acetonitrile containing an internal standard. Supernatants were transferred to labeled strip tubes with caps, which were vortexed for 3 min, and then sonicated for an additional 3 min. The samples were centrifuged for 10 min at 4000 rpm and the supernatants were used for metabolite identification. […]

[4] = system: cynomolgus monkey hepatocytes; assay: Hepatocyte metabolism of Compound 22 sodium salt, monkey; format: in vitro ADME; conditions: 100 μM, up to 240 min
Procedure: as §1

[5] = system: Sprague-Dawley rat hepatocytes; assay: Hepatocyte metabolism of Compound 22 sodium salt, rat; format: in vitro ADME; conditions: 100 μM, up to 240 min
Procedure: as §1

[6] = In vivo metabolism of Compound 22 sodium salt in bile-duct cannulated rats; parameters: species or system Sprague-Dawley rat
Procedure: Three bile-duct cannulated male Sprague-Dawley rats were dosed intravenously (IV) at 2.00 mg/kg. In addition to plasma samples, bile and urine were collected from 0 to 48 hours post-dose.

beagle dog hepatocytes = assay: Hepatocyte metabolism of Compound 22 sodium salt, dog; format: in vitro ADME; conditions: 100 μM, up to 240 min
Procedure: as §1

[7] = Sprague-Dawley, rat, plasma analyte after 1.25 mg/kg oral dose of Compound 99, male rats

SMILES: O=C(O)COC[C@H]1CC[C@H](CNC(=O)N(c2ccccc2)c2ccccc2)CC1 [Compound 2, 2-(((1r,4r)-4-((3,3-diphenylureido)methyl)cyclohexyl)methoxy)acetic acid]
IC50 (human PRP): 73 nM

SMILES: O=C(O)COC[C@H]1CC[C@H](COC(=O)N(c2ccccc2)c2cccc(F)c2)CC1 [Compound 23, 2-(((1r,4r)-4-(((3-fluorophenyl)(phenyl)carbamoyloxy)methyl)cyclohexyl)methoxy)acetic acid]
hypertrophic response, RV/(LV+S) [2]: inhibited the hypertrophic response

SMILES: O=C(O)COC[C@H]1CC[C@@H](COC(=O)N(c2ccccc2)c2cccc(Cl)c2)CC1 [Compound 30, 2-(((1s,4s)-4-(((3-chlorophenyl)(phenyl)carbamoyloxy)methyl)cyclohexyl)methoxy)acetic acid]
IC50 (human PRP): 210 nM

SMILES: Cc1ccc(N(C(=O)OC[C@H]2CC[C@H](COCC(=O)O)CC2)c2ccccc2)s1 [Compound 50, 2-(((1r,4r)-4-(((5-methylthiophen-2-yl)(phenyl)carbamoyloxy)methyl)cyclohexyl)methoxy)acetic acid]
IC50 (human PRP): 12.6 nM

SMILES: CCOc1ccc(N(C(=O)OC[C@H]2CC[C@H](COCC(=O)O)CC2)c2ccccc2)cc1 [Compound 88, 2-(((1r,4r)-4-(((4-ethoxyphenyl)(phenyl)carbamoyloxy)methyl)cyclohexyl)methoxy)acetic acid]
IC50 (human PRP): 70 nM

SMILES: O=C(O)CNC(=O)COC[C@H]1CC[C@H](COC(=O)N(c2ccccc2)c2ccc(Cl)cc2)CC1 [Compound 100, 2-(2-(((1r,4r)-4-(((4-chlorophenyl)(phenyl)carbamoyloxy)methyl)cyclohexyl)methoxy)acetamido) acetic acid]
metabolite of Compound 22 sodium salt in human hepatocytes (human hepatocytes): detected
metabolite of Compound 22 sodium salt in monkey hepatocytes [4]: detected
metabolite of Compound 22 sodium salt in rat hepatocytes [5]: only detected in human and monkey
metabolite of Compound 22 sodium salt in dog hepatocytes (beagle dog hepatocytes): only detected in human and monkey

Other lines, results leading:

EC50 [1]: 61.1 nM
SMILES: O=C(O)COC[C@H]1CC[C@H](CNC(=O)N(c2ccccc2)c2cccc(Cl)c2)CC1 [Compound 6, 2-(((1r,4r)-4-((3-(3-chlorophenyl)-3-phenylureido)methyl)cyclohexyl)methoxy)acetic acid]

EC50 [1]: 56.9 nM
SMILES: O=C(O)COC[C@H]1CC[C@@H](COC(=O)N(c2ccccc2)c2ccc(F)cc2)CC1 [Compound 35, 2-(((1s,4s)-4-(((4-fluorophenyl)(phenyl)carbamoyloxy)methyl)cyclohexyl)methoxy)acetic acid]

EC50 [1]: 5.14 nM
SMILES: COc1ccc(N(C(=O)OC[C@H]2CC[C@H](COCC(=O)O)CC2)c2cccc(F)c2)cc1 [Compound 55, 2-(((1r,4r)-4-(((3-fluorophenyl)(4-methoxyphenyl)carbamoyloxy)methyl)cyclohexyl)methoxy)acetic acid]

EC50 [1]: 19.1 nM
SMILES: Cc1ccc(N(C(=O)OC[C@H]2CC[C@H](COCC(=O)O)CC2)c2cccc(F)c2)s1 [Compound 71, 2-(((1r,4r)-4-(((3-fluorophenyl)(5-methylthiophen-2-yl)carbamoyloxy)methyl)cyclohexyl)methoxy)acetic acid]

conversion to parent ([3]; 1.25 mg/kg oral dose in rats): converted to Compound 22
exposure ([3]; 1.25 mg/kg oral dose in rats): minimal exposure
AUC(0-t) [3, 7]: 11.9 ng·h/mL
Cmax at 3.33 h [3, 7]: 1.93 ng/mL
half-life ([3]; Sprague-Dawley, rat, plasma analyte after 1.25 mg/kg oral dose of Compound 99, male rats, read-out: terminal phase half-life (T1/2) (converted)): 3.24 h
Tmax ([3]; male, Sprague-Dawley, rat, plasma, 10 mg/kg, after oral dose of the taurine conjugate of Compound 22): 3 h
time of Cmax ([3]; plasma analyte after 1.25 mg/kg oral dose of Compound 99, male rats): 3.33 h
metabolite of Compound 22 sodium salt in human hepatocytes (human hepatocytes): detected
metabolite of Compound 22 sodium salt in monkey hepatocytes [4]: detected
metabolite of Compound 22 sodium salt in rat hepatocytes [5]: detected
metabolite in bile ([6]; 2.00 mg/kg IV of Compound 22 sodium salt, bile 0 to 48 hours): observed in bile
metabolite in urine ([6]; 2.00 mg/kg IV of Compound 22 sodium salt, urine 0 to 48 hours): not observed in urine
metabolite of Compound 22 sodium salt in rats ([6]; 2.00 mg/kg IV, male rats): major metabolite
metabolite of Compound 22 sodium salt in dog hepatocytes (beagle dog hepatocytes): detected
SMILES: O=C(COC[C@H]1CC[C@H](COC(=O)N(c2ccccc2)c2ccc(Cl)cc2)CC1)NCCS(=O)(=O)O [Compound 99, 2-(2-(((1r,4r)-4-(((4-chlorophenyl)(phenyl)carbamoyloxy)methyl)cyclohexyl)methoxy)acetamido) ethanesulfonic acid]
